Laboratory results published in ChEMBL document CHEMBL1909046, “DrugMatrix in vitro pharmacology data”.

biological target: T1, Calcitonin receptor (Homo sapiens, UniProt P30988); assay: not given; format: cell membranes, Membrane; conditions: t47d; further: in other assays of this panel Not Active means under 50% inhibition at 10 µM
T1 sequence (P30988 whole entry): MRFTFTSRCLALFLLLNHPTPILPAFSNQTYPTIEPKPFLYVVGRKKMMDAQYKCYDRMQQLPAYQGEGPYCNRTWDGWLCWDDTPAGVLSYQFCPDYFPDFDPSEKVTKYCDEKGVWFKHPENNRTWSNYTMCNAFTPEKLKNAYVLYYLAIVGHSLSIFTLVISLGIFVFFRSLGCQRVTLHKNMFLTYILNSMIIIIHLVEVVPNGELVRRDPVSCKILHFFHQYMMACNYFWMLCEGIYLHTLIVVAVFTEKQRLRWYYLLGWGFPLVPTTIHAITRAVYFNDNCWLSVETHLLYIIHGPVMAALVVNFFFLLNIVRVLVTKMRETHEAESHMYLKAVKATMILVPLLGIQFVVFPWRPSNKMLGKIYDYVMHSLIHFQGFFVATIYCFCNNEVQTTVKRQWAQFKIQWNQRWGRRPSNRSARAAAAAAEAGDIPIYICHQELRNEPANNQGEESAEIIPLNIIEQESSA

Row | SMILES | IC50
1 | C#C[C@]1(O)CC[C@H]2[C@@H]3CCC4=Cc5oncc5C[C@]4(C)[C@H]3CC[C@@]21C [DANAZOL] | Not Active
2 | CCN[C@@H](C)Cc1cccc(C(F)(F)F)c1 [DEXFENFLURAMINE] | Not Active
3 | C[C@H](C(=O)O)c1cccc(C(=O)c2ccccc2)c1 [DEXKETOPROFEN] | Not Active
4 | CN1C(=O)CN=C(c2ccccc2)c2cc(Cl)ccc21 [DIAZEPAM] | Not Active
5 | Cc1c(N(C)CS(=O)(=O)[O-])c(=O)n(-c2ccccc2)n1C.[Na+] [DIPYRONE SODIUM] | Not Active

biological target: T2, Endothelin-1 receptor (Homo sapiens, UniProt P25101); assay: not given; format: cell membranes, CHO-K1, Membrane; conditions: cho-k1; further: in other assays of this panel Not Active means under 50% inhibition at 10 µM
T2 sequence (P25101 whole entry): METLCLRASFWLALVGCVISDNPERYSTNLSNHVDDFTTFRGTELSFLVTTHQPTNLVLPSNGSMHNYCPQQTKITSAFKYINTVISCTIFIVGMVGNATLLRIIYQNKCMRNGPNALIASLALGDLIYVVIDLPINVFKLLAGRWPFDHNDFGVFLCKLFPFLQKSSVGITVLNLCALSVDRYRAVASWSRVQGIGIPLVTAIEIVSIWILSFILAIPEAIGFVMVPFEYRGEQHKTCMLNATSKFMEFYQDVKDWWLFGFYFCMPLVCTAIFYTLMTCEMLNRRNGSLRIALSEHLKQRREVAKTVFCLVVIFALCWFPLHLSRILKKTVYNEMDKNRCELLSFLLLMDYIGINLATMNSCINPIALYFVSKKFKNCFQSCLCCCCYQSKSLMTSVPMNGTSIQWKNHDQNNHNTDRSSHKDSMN

Row | SMILES | IC50
6 | C#C[C@]1(O)CC[C@H]2[C@@H]3CCC4=Cc5oncc5C[C@]4(C)[C@H]3CC[C@@]21C [DANAZOL] | Not Active
7 | CCN[C@@H](C)Cc1cccc(C(F)(F)F)c1 [DEXFENFLURAMINE] | Not Active
8 | C[C@H](C(=O)O)c1cccc(C(=O)c2ccccc2)c1 [DEXKETOPROFEN] | Not Active
9 | CN1C(=O)CN=C(c2ccccc2)c2cc(Cl)ccc21 [DIAZEPAM] | Not Active
10 | Cc1c(N(C)CS(=O)(=O)[O-])c(=O)n(-c2ccccc2)n1C.[Na+] [DIPYRONE SODIUM] | Not Active

biological target: T3, Angiotensin-converting enzyme (Oryctolagus cuniculus, UniProt P12822); assay: not given; format: tissue-based, Lung; conditions: not given;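 further: enzymatic inhibition of angiotensin-converting enzyme measured with FAPGG as the substrate; in other assays of this panel Not Active means under 50% inhibition at 10 µM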
T3 sequence (P12822 whole entry): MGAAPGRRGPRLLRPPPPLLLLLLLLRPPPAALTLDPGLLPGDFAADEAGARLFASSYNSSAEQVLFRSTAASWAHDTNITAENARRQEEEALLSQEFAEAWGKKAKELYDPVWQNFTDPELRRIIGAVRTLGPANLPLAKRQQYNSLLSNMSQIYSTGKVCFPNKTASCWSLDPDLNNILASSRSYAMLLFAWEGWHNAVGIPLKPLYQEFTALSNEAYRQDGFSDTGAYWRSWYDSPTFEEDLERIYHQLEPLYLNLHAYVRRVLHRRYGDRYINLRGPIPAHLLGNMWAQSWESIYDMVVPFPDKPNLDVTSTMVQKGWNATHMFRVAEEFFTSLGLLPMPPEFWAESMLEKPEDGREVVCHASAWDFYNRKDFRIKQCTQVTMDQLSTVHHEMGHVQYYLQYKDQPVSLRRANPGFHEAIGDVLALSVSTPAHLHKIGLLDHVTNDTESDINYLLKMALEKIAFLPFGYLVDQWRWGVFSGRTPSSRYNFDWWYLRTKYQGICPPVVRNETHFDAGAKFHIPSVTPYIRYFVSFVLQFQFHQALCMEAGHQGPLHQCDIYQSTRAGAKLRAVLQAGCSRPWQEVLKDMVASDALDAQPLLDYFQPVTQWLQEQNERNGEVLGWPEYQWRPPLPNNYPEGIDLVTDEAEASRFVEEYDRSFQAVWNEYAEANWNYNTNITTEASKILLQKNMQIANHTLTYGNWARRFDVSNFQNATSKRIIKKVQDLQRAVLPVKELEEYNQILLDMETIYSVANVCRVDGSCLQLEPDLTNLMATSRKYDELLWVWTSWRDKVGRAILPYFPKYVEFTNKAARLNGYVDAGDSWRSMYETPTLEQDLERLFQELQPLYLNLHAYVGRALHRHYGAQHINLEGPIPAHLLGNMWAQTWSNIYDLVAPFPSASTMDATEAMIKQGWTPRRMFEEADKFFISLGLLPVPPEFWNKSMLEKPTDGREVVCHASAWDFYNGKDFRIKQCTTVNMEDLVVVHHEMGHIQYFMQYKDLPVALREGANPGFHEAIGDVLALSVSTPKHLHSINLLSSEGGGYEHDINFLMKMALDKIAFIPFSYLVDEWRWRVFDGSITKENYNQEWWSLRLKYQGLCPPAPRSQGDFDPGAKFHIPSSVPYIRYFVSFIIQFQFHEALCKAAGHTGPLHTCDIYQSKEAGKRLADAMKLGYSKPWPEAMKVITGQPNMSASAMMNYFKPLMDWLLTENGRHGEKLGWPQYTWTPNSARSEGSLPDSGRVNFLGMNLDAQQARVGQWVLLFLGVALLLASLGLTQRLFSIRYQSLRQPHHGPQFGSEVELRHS

Row | SMILES | IC50
11 | C#C[C@]1(O)CC[C@H]2[C@@H]3CCC4=Cc5oncc5C[C@]4(C)[C@H]3CC[C@@]21C [DANAZOL] | Not Active
12 | CCN[C@@H](C)Cc1cccc(C(F)(F)F)c1 [DEXFENFLURAMINE] | Not Active
13 | C[C@H](C(=O)O)c1cccc(C(=O)c2ccccc2)c1 [DEXKETOPROFEN] | Not Active
14 | CN1C(=O)CN=C(c2ccccc2)c2cc(Cl)ccc21 [DIAZEPAM] | Not Active
15 | Cc1c(N(C)CS(=O)(=O)[O-])c(=O)n(-c2ccccc2)n1C.[Na+] [DIPYRONE SODIUM] | Not Active

test system: not listed separately; assay: DRUGMATRIX: Calcium Channel Type L, Phenylalkylamine radioligand binding (ligand: [3H] (-)-Desmethoxyverapamil (D-888)); format: cell membranes, Rattus norvegicus, Wistar, Brain, Membrane; conditions: Not Active = under 50% inhibition at 10 µM

Row | SMILES | IC50 | Ki
16 | CCN[C@@H](C)Cc1cccc(C(F)(F)F)c1 [DEXFENFLURAMINE] | Not Active | Not Active
17 | C[C@H](C(=O)O)c1cccc(C(=O)c2ccccc2)c1 [DEXKETOPROFEN] | Not Active | Not Active
18 | CN1C(=O)CN=C(c2ccccc2)c2cc(Cl)ccc21 [DIAZEPAM] | Not Active | Not Active
19 | Cc1c(N(C)CS(=O)(=O)[O-])c(=O)n(-c2ccccc2)n1C.[Na+] [DIPYRONE SODIUM] | Not Active | Not Active

same assay, conditions: Not Active = under 50% inhibition at 10 µM; read-out: IC50

Row | SMILES | IC50 [µM]
20 | C#C[C@]1(O)CC[C@H]2[C@@H]3CCC4=Cc5oncc5C[C@]4(C)[C@H]3CC[C@@]21C [DANAZOL] | 14.6

same assay, conditions: Not Active = under 50% inhibition at 10 µM; read-out: Ki

Row | SMILES | Ki [µM]
21 | C#C[C@]1(O)CC[C@H]2[C@@H]3CCC4=Cc5oncc5C[C@]4(C)[C@H]3CC[C@@]21C [DANAZOL] | 14.2

biological target: Aldo-keto reductase family 1 member B1 (Rattus norvegicus, UniProt P07943); assay: biochemical; format: tissue-based, Lens of camera-type eye; conditions: not given;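 further: inhibition of aldose reductase enzyme activity, measured with DL-glyceraldehyde as the substrate; in other assays of this panel Not Active means under 50% inhibition at 10 µM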

Row | SMILES | IC50
22 | C#C[C@]1(O)CC[C@H]2[C@@H]3CCC4=Cc5oncc5C[C@]4(C)[C@H]3CC[C@@]21C [DANAZOL] | Not Active
23 | CCN[C@@H](C)Cc1cccc(C(F)(F)F)c1 [DEXFENFLURAMINE] | Not Active
24 | C[C@H](C(=O)O)c1cccc(C(=O)c2ccccc2)c1 [DEXKETOPROFEN] | Not Active
25 | CN1C(=O)CN=C(c2ccccc2)c2cc(Cl)ccc21 [DIAZEPAM] | Not Active
26 | Cc1c(N(C)CS(=O)(=O)[O-])c(=O)n(-c2ccccc2)n1C.[Na+] [DIPYRONE SODIUM] | Not Active

biological target: T4, D(4) dopamine receptor (Homo sapiens, UniProt P21917); assay: DRUGMATRIX: Dopamine D4.2 radioligand binding (ligand: [3H] Spiperone); format: cell membranes, CHO-K1, Membrane; conditions: cho-k1; Not Active = under 50% inhibition at 10 µM
T4 sequence (P21917 whole entry): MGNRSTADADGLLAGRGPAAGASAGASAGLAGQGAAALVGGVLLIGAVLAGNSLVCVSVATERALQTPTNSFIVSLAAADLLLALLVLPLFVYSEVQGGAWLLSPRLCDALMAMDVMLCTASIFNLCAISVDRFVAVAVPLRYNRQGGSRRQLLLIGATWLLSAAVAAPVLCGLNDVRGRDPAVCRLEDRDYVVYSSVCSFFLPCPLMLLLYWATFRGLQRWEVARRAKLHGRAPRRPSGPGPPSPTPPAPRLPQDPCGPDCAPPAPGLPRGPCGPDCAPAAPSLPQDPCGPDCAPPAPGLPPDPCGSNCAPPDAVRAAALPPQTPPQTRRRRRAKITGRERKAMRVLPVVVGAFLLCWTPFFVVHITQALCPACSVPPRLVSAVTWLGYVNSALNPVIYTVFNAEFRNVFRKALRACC

Row | SMILES | IC50
27 | C#C[C@]1(O)CC[C@H]2[C@@H]3CCC4=Cc5oncc5C[C@]4(C)[C@H]3CC[C@@]21C [DANAZOL] | Not Active
28 | CCN[C@@H](C)Cc1cccc(C(F)(F)F)c1 [DEXFENFLURAMINE] | Not Active
29 | C[C@H](C(=O)O)c1cccc(C(=O)c2ccccc2)c1 [DEXKETOPROFEN] | Not Active
30 | CN1C(=O)CN=C(c2ccccc2)c2cc(Cl)ccc21 [DIAZEPAM] | Not Active
31 | Cc1c(N(C)CS(=O)(=O)[O-])c(=O)n(-c2ccccc2)n1C.[Na+] [DIPYRONE SODIUM] | Not Active

test system: not listed separately; assay: DRUGMATRIX: GABAA, Muscimol, Central radioligand binding (ligand: [3H] Muscimol); format: cell membranes, Rattus norvegicus, Wistar, Brain, Membrane; conditions: Not Active = under 50% inhibition at 10 µM

Row | SMILES | IC50 | Ki
32 | C#C[C@]1(O)CC[C@H]2[C@@H]3CCC4=Cc5oncc5C[C@]4(C)[C@H]3CC[C@@]21C [DANAZOL] | Not Active | Not Active
33 | CCN[C@@H](C)Cc1cccc(C(F)(F)F)c1 [DEXFENFLURAMINE] | Not Active | Not Active
34 | C[C@H](C(=O)O)c1cccc(C(=O)c2ccccc2)c1 [DEXKETOPROFEN] | Not Active | Not Active
35 | CN1C(=O)CN=C(c2ccccc2)c2cc(Cl)ccc21 [DIAZEPAM] | Not Active | Not Active
36 | Cc1c(N(C)CS(=O)(=O)[O-])c(=O)n(-c2ccccc2)n1C.[Na+] [DIPYRONE SODIUM] | Not Active | Not Active

test system: not listed separately; assay: DRUGMATRIX: Glutamate, NMDA, Agonism radioligand binding (ligand: [3H] CGP-39653); format: cell membranes, Rattus norvegicus, Wistar, Cerebral cortex, Membrane; conditions: Not Active = under 50% inhibition at 10 µM

Row | SMILES | IC50 | Ki
37 | C#C[C@]1(O)CC[C@H]2[C@@H]3CCC4=Cc5oncc5C[C@]4(C)[C@H]3CC[C@@]21C [DANAZOL] | Not Active | Not Active
38 | CCN[C@@H](C)Cc1cccc(C(F)(F)F)c1 [DEXFENFLURAMINE] | Not Active | Not Active
39 | C[C@H](C(=O)O)c1cccc(C(=O)c2ccccc2)c1 [DEXKETOPROFEN] | Not Active | Not Active
40 | CN1C(=O)CN=C(c2ccccc2)c2cc(Cl)ccc21 [DIAZEPAM] | Not Active | Not Active
41 | Cc1c(N(C)CS(=O)(=O)[O-])c(=O)n(-c2ccccc2)n1C.[Na+] [DIPYRONE SODIUM] | Not Active | Not Active
